In PubChem BioAssay (NCI):
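1) Cells in 96-well plates. 2) Compound, 48 h, 5 concentrations. 3) Linear interpolation between surrounding doses. 4) Unreached endpoint = highest concentration. TGI is the concentration that stops growth completely.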 Where a SMILES comes first, the peptide text is derived from it. The star is where a group is joined. Cbz = O=C(OCc1ccccc1)*

Key:
Test in all cases: growth of human tumour cells (NCI), 48 h
RPMI-8226 leukemia = tested on: RPMI-8226 leukemia
MCF7 breast = tested on: MCF7 breast
NCI-H460 lung = tested on: NCI-H460 lung
SW-620 colon = tested on: SW-620 colon
MALME-3M melanoma = tested on: MALME-3M melanoma
MDA-MB-435 = tested on: MDA-MB-435
786-0 renal = tested on: 786-0 renal
U251 CNS = tested on: U251 CNS
NCI/ADR-RES ovarian = tested on: NCI/ADR-RES ovarian
OVCAR-8 ovarian = tested on: OVCAR-8 ovarian

Row | SMILES | TGI (RPMI-8226 leukemia) [µM] | TGI (MCF7 breast) [µM] | TGI (NCI-H460 lung) [µM] | TGI (SW-620 colon) [µM] | TGI (MALME-3M melanoma) [µM] | TGI (MDA-MB-435) [µM] | TGI (786-0 renal) [µM] | TGI (U251 CNS) [µM] | TGI (NCI/ADR-RES ovarian) [µM] | TGI (OVCAR-8 ovarian) [µM]
1 | Nc1ncnc2c1ncn2[C@@H]1C[C@@H]1CO | > 100 | > 100 | > 100 | > 100 | > 100 | > 100 | > 100 | > 100 | > 100 | > 100
2 | O=C(Oc1ccccn1)c1cc2cc(CCl)ccc2oc1=O | > 100 | > 100 | > 100 | > 100 | 31.3 | > 100 | 39.6 | 34.7 | 75.5 | > 100
3 | Nc1nc(SC/C=C/c2ccccc2)c2[nH]cnc2n1 | > 100 | > 100 | > 100 | > 100 | > 100 | > 100 | > 100 | > 100 | > 100 | > 100
4 | N#CCCN(C(=O)Nc1ccccc1)[C@H]1CCCC[C@@H]1N(C(=O)Nc1ccccc1)c1ccccc1 | > 100 | > 100 | > 100 | > 100 | > 100 | > 100 | > 100 | > 100 | > 100 | > 100
5 | CN=C(N=Nc1c(O)[nH]c2ccccc12)SCC(=O)c1ccc(Br)cc1 | > 100 | 20.4 | > 38.3 | > 34.1 | > 47.1 | > 42.3 | 16 | 16.6 | 27 | > 40.7
6 | CC1CCC(=O)C(C(=O)CC2CC(=O)N(C)C(=O)C2)C1 (configuration not stated) | > 100 | > 100 | > 100 | > 100 | > 100 | > 100 | > 100 | > 100 | > 100 | > 100
7 | CC(CO)(CO)N1C(=O)C2C3C=CC(C3)C2C1=O (configuration not stated) | > 100 | > 100 | > 100 | > 100 | > 100 | > 100 | > 100 | > 100 | > 100 | > 100
8 | O=C(O)C(NCc1ccccc1)C(NCc1ccccc1)C(=O)O (configuration not stated) | > 100 | > 100 | > 100 | > 100 | > 100 | > 100 | > 100 | > 100 | > 100 | > 100
9 | O=C1C(c2c(O)[nH]c3ccc(F)cc23)=Nc2ccccc21 | > 100 | > 100 | > 100 | > 100 | > 100 | > 100 | > 100 | 42.7 | > 100 | 43.8
10 | COc1ccc2cc(/C=N/NC(=O)Nc3ccccc3)ccc2c1 | > 100 | > 100 | > 100 | > 100 | > 100 | > 100 |  | > 100 | > 100 | > 100
11 | NC(=O)C(C(N)=O)=C(O)C(=O)/C=C(\O)c1ccccc1 | 31.7 | > 100 | > 100 | > 100 | > 100 | > 100 | > 100 | > 100 | > 100 | > 100
12 | Cc1nc2c(nc1C)-c1[nH]c3c(c1C(=O)C2=O)CCCC3=O | 3.22 | 2.98 | 16.2 | 5.17 | 2.82 | 1.48 | 7.34 | 2.92 | 6.47 | 2.88
13 | O=c1c(/C=C/c2c(O)ccc3ccccc23)nnc2sc(-c3cccc(Br)c3)nn12 | > 100 | 84.4 | > 100 | > 100 | > 100 | > 100 | > 100 | > 100 | 88.4 | 23.6
14 | CCOC1OC(=O)c2cc3ccc4c(c3c(-c3ccc5c(c3)OCO5)c21)OCO4 (configuration not stated) | > 100 | > 100 | 28.1 | > 100 | > 100 | > 28 | > 100 | > 100 | > 74.6 | > 100
15 | CC(O)C1(CNc2cc(Cl)nc(N)n2)CCC1 (configuration not stated) | > 100 | > 100 | > 100 | > 100 | > 100 | > 100 | > 100 | > 100 | > 100 | > 100
16 | COC(=O)c1cc2ccc(N)nc2[nH]c1=O | > 100 | > 100 | > 100 | > 100 | > 100 | > 100 | > 100 | > 100 | > 100 | > 100
17 | Cn1ccc(C(=O)NCCN(CCNC(=O)c2ccn(C)c(=O)c2O)CCNC(=O)c2cccc(=O)n2O)c(O)c1=O | > 100 | > 100 | > 100 | > 100 | > 100 | > 100 | > 100 | > 100 | > 100 | > 100
18 | O=C(Nc1nc(C23CC4CC(CC(C4)C2)C3)cs1)c1cc2ccc(O)cc2oc1=O | 32.6 | 61.3 | 52.7 | 22 | 34.5 | 31.8 | 23.8 | 28.7 | 48.5 | 90.9
19 | Cc1nn(-c2ccccc2)c2c1C(c1ccc(Cl)cc1)NC(=S)N2 (configuration not stated) | 48.7 | > 100 | 60 | 71.1 | 93.9 | 47.4 | 36.8 | 48.1 | 68.5 | 43.3
20 | Cc1cc2oc(=N)c(C#N)c(C)c2cc1C | > 100 | > 100 | > 100 | > 100 | > 100 | > 100 | > 100 | > 100 | > 100 | > 100
21 | Fc1cc(-c2cc(-c3ccccc3)no2)c(Cl)cc1Cl | 34 | > 100 | > 43.1 | > 63.3 | > 35.2 | > 35.9 | > 33.6 | > 21.7 | > 100 | > 40.8

Row | SMILES | TGI (RPMI-8226 leukemia) [µM] | TGI (MCF7 breast) [µM] | TGI (NCI-H460 lung) [µM] | TGI (SW-620 colon) [µM] | TGI (MALME-3M melanoma) [µM] | TGI (MDA-MB-435) [µM] | TGI (786-0 renal) [µM] | TGI (U251 CNS) [µM] | TGI (NCI/ADR-RES ovarian) [µM] | TGI (OVCAR-8 ovarian) [µM]
22 | CN(C)CCCN1CCC2(CCC(C(C)(C)C)CC2)CC1 | 10.5 | 3.07 | 2.36 | 7.87 | 3.4 | 1.19 | 3.09 | 3.64 | 19.5 | 16.5
23 | CCOC(=O)CC[C@H](NC(=O)[C@H](N)Cc1ccc(N(CCCl)CCCl)cc1)C(=O)OCC | > 100 | > 87.3 | 17.3 | > 58.8 | 9.92 | > 53.1 | 23.5 | > 59.2 | 30.9 | > 52.8
24 | O=c1[nH]nc(Cc2ccccc2)n1/N=C/c1ccccc1O | > 100 | > 100 | > 100 | > 100 | > 100 | > 100 | > 100 | > 100 | > 100 | > 100
25 | CC12CC(c3ccccc3O1)C(C(=O)Nc1ccc(Cl)cc1Cl)C(=O)N2 (configuration not stated) | > 100 | > 100 | > 100 | > 100 | 89.8 | > 100 | 43.8 | 48.2 | > 100 | 30.6
26 | CCOC(=O)CN1C(=O)c2ccc(NC(=O)C(=O)O)cc2S1(=O)=O | > 100 | > 100 | > 100 | > 100 | > 100 | > 100 | > 100 | > 100 | > 100 | > 100
27 | CC1OC(OC2C(O)COC(OC3C(C)OC(OC4C(OC(=O)[C@]56CCC(C)(C)C[C@@H]5C5=CCC7[C@@]8(C)C[C@H](O)[C@H](OC9OC(CO)C(O)C(O)C9O)[C@@](C)(CO)[C@@H]8CC[C@@]7(C)[C@]5(C)CC6)OCC(O)C4O)C(O)C3OC3OCC(O)(CO)C3O)C2O)C(O)C(O)C1O (some centres not stated) | > 100 | > 67.9 | 42.2 | 31.6 | 33.8 | 47.3 | 27.8 | 37.4 | 41.7 | 40.4
28 | CCOC(=O)c1nnc2c(C(=O)OCC)c3ccccc3n2c1N | 6.39 | > 100 | > 100 | > 100 | 7.57 | > 100 | > 100 | > 100 | 43.6 | > 100
29 | O=Cc1[nH]c(=O)[nH]c(=O)c1C(=O)O | > 100 | > 100 | > 100 | > 100 | > 100 | > 100 | > 100 | > 100 | > 100 | > 100
30 | N#Cc1c(-c2ccc(Cl)cc2Cl)nc2[nH][nH]c(=S)n2c1=O | > 100 | > 100 | > 100 | > 100 | > 100 | > 100 | > 100 | > 100 | > 100 | > 100
31 | C[C@H](CCC(=O)O)[C@H]1CC[C@H]2[C@@H]3CC[C@@H]4C[C@H](O)CC[C@]4(C)[C@H]3C[C@H](O)[C@]12C | 57.6 | > 100 | > 100 | > 100 | > 100 | > 100 | > 100 | > 100 | > 100 | > 100
32 | COC(=O)C(Cc1c[nH]c2ccccc12)NP(=O)(O)OCC1OC(n2cc(I)c(=O)[nH]c2=O)CC1O (configuration not stated) | > 100 | > 100 | > 100 | > 100 | > 100 | > 100 | > 100 | > 100 | > 100 | > 100
33 | O=[N+]([O-])/C(C(Cl)=C(Cl)Cl)=C(/Cl)Sc1ccccc1 | 1.15 | 2.99 | 34.6 | 1.07 | 3.03 | 3.29 | 2.62 | 5.04 | 2.35 | 0.786
34 | C/C=C(/C)C(=O)O[C@@H]1CCN2CC[C@H](COC(=O)/C(=C/C)CO)C12 (some centres not stated) | > 87.8 | > 100 | > 100 | > 100 | 84.2 | > 100 | > 100 | > 100 | > 100 | > 100
35 | COC(CNC(=O)C(C)NC(=O)/C=C/c1ccccc1)OC (configuration not stated) | > 100 | > 100 | > 100 | > 100 | > 100 | > 100 | > 100 | > 100 | > 100 | > 100
36 | CN1CCN(C(=S)N2CCN(C)CC2)CC1 | > 76.7 | > 37.3 | > 21.8 | > 100 | > 100 | > 100 | > 100 | > 100 | > 100 | > 100
37 | O=C(O)CCC(NC(=O)OCc1ccccc1)C(=O)NC(Cc1cnc[nH]1)C(=O)O (stereo not drawn) (Cbz-Glu-His-OH; configuration not given here) | > 100 | > 100 | > 100 | > 100 | > 100 | > 100 | > 100 | > 100 | > 100 | > 100
38 | Clc1ccc(C2C3COc4ccccc4C3=NN2c2ccccc2)cc1 (configuration not stated) | 7.32 | > 100 | > 100 | > 32.7 | > 100 | > 100 | > 96.4 | > 100 | > 100 | > 100
39 | Nc1nc(N)c2c3c(cnc2n1)CC(c1ccccc1)CC3 (configuration not stated) | > 100 | 30.4 | > 100 | > 100 | > 100 | > 100 | 24.3 | > 100 | > 100 | 26.6
40 | COc1cc(C2c3cc4c(cc3OC3(OC)COC(=O)C23)OCO4)cc(OC)c1OC(C)=O (configuration not stated) | > 100 | > 36.4 | > 59.7 | > 100 | > 100 | 2.23 | > 100 | > 100 | 10.4 | > 75.2
41 | NNC(=O)c1n[nH]nc1C(=O)NN | > 100 | > 100 | > 100 |  | 33.1 | > 100 | 28.8 | > 100 | > 100 | > 100
42 | Cc1[nH]nc(C(F)(F)F)c1N=NN1CCOCC1 | 5.06 | 21 | 17.1 | 5.64 | 31.3 | 26 |  | 27.7 | 22.1 | 13.7
